In patent publication US12421224B2 (BIOGEN MA INC., priority 2019, dated 2025) one finds IC50 data, which are given here for 32 compounds.

This experiment concerns the target T1, Recombinant full length human OGA enzyme (Homo sapiens, UniProt O60502).
T1 construct: Recombinant full length human OGA enzyme; purchased Origene
T1 sequence (O60502 1-916): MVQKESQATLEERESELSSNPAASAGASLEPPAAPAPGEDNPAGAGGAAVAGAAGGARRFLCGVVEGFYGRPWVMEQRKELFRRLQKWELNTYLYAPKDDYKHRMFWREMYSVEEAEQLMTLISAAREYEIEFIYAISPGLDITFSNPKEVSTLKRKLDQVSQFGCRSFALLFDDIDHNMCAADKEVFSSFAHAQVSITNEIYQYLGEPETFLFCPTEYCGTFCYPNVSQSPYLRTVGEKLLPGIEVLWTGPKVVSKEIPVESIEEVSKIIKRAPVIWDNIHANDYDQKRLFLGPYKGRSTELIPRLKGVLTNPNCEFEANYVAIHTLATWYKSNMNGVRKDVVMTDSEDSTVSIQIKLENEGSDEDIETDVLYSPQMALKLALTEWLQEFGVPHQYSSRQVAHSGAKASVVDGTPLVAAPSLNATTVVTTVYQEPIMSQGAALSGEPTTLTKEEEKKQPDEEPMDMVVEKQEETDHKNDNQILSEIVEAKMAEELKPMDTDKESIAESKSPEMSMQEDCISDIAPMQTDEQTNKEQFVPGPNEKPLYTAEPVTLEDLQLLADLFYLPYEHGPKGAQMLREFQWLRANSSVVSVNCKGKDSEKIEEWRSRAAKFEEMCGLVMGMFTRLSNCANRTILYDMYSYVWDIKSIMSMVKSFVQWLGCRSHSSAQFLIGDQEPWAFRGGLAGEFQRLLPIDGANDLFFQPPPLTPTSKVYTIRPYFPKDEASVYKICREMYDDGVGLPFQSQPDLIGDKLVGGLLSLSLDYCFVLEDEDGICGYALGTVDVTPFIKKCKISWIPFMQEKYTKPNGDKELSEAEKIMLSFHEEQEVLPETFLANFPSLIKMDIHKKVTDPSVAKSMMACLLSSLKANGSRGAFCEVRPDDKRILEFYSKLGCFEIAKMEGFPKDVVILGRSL
The experiment is described as follows: OGA Enzyme Inhibition Biochemical Assay. The conditions noted are these: 1 nM OGA, 100 μM 4-MUGlcNAc (Km), pH 6.4, 90 minutes at room temperature, 10-point dose-response starting from 20 μM. The protocol: OGA Enzyme Inhibition Biochemical Assay
Recombinant full length human OGA enzyme was purchased from Origene. 4-MUGlCNAc substrate was purchased from Sigma. All other reagents were purchased from Sigma or Fisher. Assay buffer consists of the Mcllvaine buffer system, pH 6.4 (0.2M Na2HPO4 mixed with 0.1M citric acid) and 0.01% BSA. Reactions consist of 1 nM OGA, 100 μM 4-MUGlcNAc (Km), and compound in a final volume of 10 μl. Reactions were incubated for 90 minutes at room temperature and quenched with […] of 3M glycine, pH 10 and read on a Perkin Elmer Envision plate reader (Ex: 355 nm/Em: 460 nm). Compounds were tested with a 10-point dose-response starting from 20 μM with a 4-fold dilution. Data was fit using GraphPad Prism using a 4-parameter fit with variable slope.
As a reminder, the IC50 is the concentration that inhibits the measured activity by half. For `COc1cc(O[C@@H]2CN(Cc3cnc(NC(C)=O)s3)[C@@H]2C)ncn1` (single isomer, unassigned) [Example 2-10], the IC50 was 600 nM.
For `COc1cc(COC2CN(Cc3cnc(NC(C)=O)s3)C2)ccn1` [Example 1-1, N-(5-((3-((2-methoxypyridin-4-yl)methoxy)azetidin-1-yl)methyl)thiazol-2-yl)acetamide] the value was 91 nM; for `CC(=O)Nc1ncc(CN2CC(OCc3cc(C)nc(C)c3)C2)s1` [Example 1-2, N-(5-((3-((2,6-dimethylpyridin-4-yl)methoxy)azetidin-1-yl)methyl)thiazol-2-yl)acetamide], 480 nM.
For `CC(=O)Nc1ncc(CN2CC(OCc3noc(C)n3)C2)s1` [Example 1-3, N-(5-((3-((5-methyl-1,2,4-oxadiazol-3-yl)methoxy)azetidin-1-yl)methyl)thiazol-2-yl)acetamide] the value was 220 nM; for `COc1cc(OC2CN(Cc3cnc(NC(C)=O)s3)C2)ncn1` [Example 2-1, N-(5-((3-((6-methoxypyrimidin-4-yl)oxy)azetidin-1-yl)methyl)thiazol-2-yl)acetamide], 407 nM.
Next, `CC(=O)Nc1ncc(CN2CC(Oc3ncc(F)cn3)C2)s1` [Example 2-2]: 530 nM; `COc1cc(OC2CN(Cc3cnc(NC(C)=O)s3)C2)ccn1` [Example 2-3, N-(5-((3-((2-methoxypyridin-4-yl)oxy)azetidin-1-yl)methyl)thiazol-2-yl)acetamide]: 160 nM; `CC(=O)Nc1ncc(CN2CC(Oc3ncccc3C)C2)s1` [Example 2-4, N-(5-((3-((3-methylpyridin-2-yl)oxy)azetidin-1-yl)methyl)thiazol-2-yl)acetamide]: above 20 nM.
Turning to `CC(=O)Nc1ncc(CN2CC(Oc3ccc(C#N)cn3)C2)s1` [Example 2-5, N-(5-((3-((5-cyanopyridin-2-yl)oxy)azetidin-1-yl)methyl)thiazol-2-yl)acetamide], the IC50 came out at 340 nM.
Next, `COc1cc(O[C@@H]2CN(Cc3cnc(NC(C)=O)s3)[C@@H]2C)ccn1` [Example 2-6, N-(5-(((2R,3R)-3-((2-methoxypyridin-4-yl)oxy)-2-methylazetidin-1-yl)methyl)thiazol-2-yl)acetamide]: 170 nM; `COc1cc(O[C@H]2CN(Cc3cnc(NC(C)=O)s3)[C@@H]2C)ccn1` [Example 2-7, N-(5-(((2R,3S)-3-((2-methoxypyridin-4-yl)oxy)-2-methylazetidin-1-yl)methyl)thiazol-2-yl)acetamide]: 210 nM.
For `CC(=O)Nc1ncc(CN2C[C@@H](Oc3ccc(F)cn3)[C@H]2C)s1` [Example 2-8, N-(5-(((2R,3R)-3-((5-fluoropyridin-2-yl)oxy)-2-methylazetidin-1-yl)methyl)thiazol-2-yl)acetamide] the value was 450 nM; for `CC(=O)Nc1ncc(CN2C[C@H](Oc3ccc(F)cn3)[C@H]2C)s1` [Example 2-9, N-(5-(((2R,3S)-3-((5-fluoropyridin-2-yl)oxy)-2-methylazetidin-1-yl)methyl)thiazol-2-yl)acetamide], 170 nM.
For `COc1cc(NC2CN(Cc3cnc(NC(C)=O)s3)C2)ncn1` [Example 2-11] the value was 407 nM.
On to `COc1cc(NC2CN(Cc3cnc(NC(C)=O)s3)C2)ccn1` [Example 2-12, N-(5-((3-((2-methoxypyridin-4-yl)amino)azetidin-1-yl)methyl)thiazol-2-yl)acetamide], for which the IC50 came to 33 nM.
As for `CC(=O)Nc1ncc(CN2CC(Nc3ccc(C#N)cn3)C2)s1` [Example 2-13, N-(5-((3-((5-cyanopyridin-2-yl)amino)azetidin-1-yl)methyl)thiazol-2-yl)acetamide], the IC50 was found to be 59 nM.
Next, `CC(=O)Nc1ncc(CN2CC(Nc3ccc(F)cn3)C2)s1` [Example 2-14, N-(5-((3-((5-fluoropyridin-2-yl)amino)azetidin-1-yl)methyl)thiazol-2-yl)acetamide]: 130 nM; `CC(=O)Nc1ncc(CN2C[C@@H](Nc3ccc(F)cn3)[C@H]2C)s1` [Example 2-15, N-(5-(((2R,3R)-3-((5-fluoropyridin-2-yl)amino)-2-methylazetidin-1-yl)methyl)thiazol-2-yl)acetamide]: 800 nM; `COc1cc(N[C@@H]2CN(Cc3cnc(NC(C)=O)s3)[C@@H]2C)ccn1` [Example 2-16, N-(5-(((2R,3R)-3-((2-methoxypyridin-4-yl)amino)-2-methylazetidin-1-yl)methyl)thiazol-2-yl)acetamide]: 570 nM.
On to `COc1cc(N[C@H]2CN(Cc3cnc(NC(C)=O)s3)[C@@H]2C)ccn1` [Example 2-17, N-(5-(((2R,3S)-3-((2-methoxypyridin-4-yl)amino)-2-methylazetidin-1-yl)methyl)thiazol-2-yl)acetamide], for which the IC50 is 11 nM.
Next, `CC(=O)Nc1ncc(CN2C[C@@H](Nc3ccc(C#N)cn3)[C@H]2C)s1` [Example 2-18, N-(5-(((2R,3R)-3-((5-cyanopyridin-2-yl)amino)-2-methylazetidin-1-yl)methyl)thiazol-2-yl)acetamide]: 570 nM.
Next, `CC(=O)Nc1ncc(CN2C[C@H](Nc3ccc(C#N)cn3)[C@H]2C)s1` [Example 2-19, N-(5-(((2R,3S)-3-((5-cyanopyridin-2-yl)amino)-2-methylazetidin-1-yl)methyl)thiazol-2-yl)acetamide]: 25 nM.
Next, `CC(=O)Nc1ncc(CN2CC(COc3cc(C)nc(C)c3)C2)s1` [Example 2-20, N-(5-((3-(((2,6-dimethylpyridin-4-yl)oxy)methyl)azetidin-1-yl)methyl)thiazol-2-yl)acetamide]: 480 nM.
For `CC(=O)Nc1ncc(CN2CC(COc3cc(C)nc(C)n3)C2)s1` [Example 2-21, N-(5-((3-(((2,6-dimethylpyrimidin-4-yl)oxy)methyl)azetidin-1-yl)methyl)thiazol-2-yl)acetamide], the IC50 came to 1300 nM.
Consider `CC(=O)Nc1ncc(CN2CC(COc3ccc(F)cn3)C2)s1` [Example 2-22, N-(5-((3-(((5-fluoropyridin-2-yl)oxy)methyl)azetidin-1-yl)methyl)thiazol-2-yl)acetamide], for which the IC50 amounted to 1500 nM.
Next, `COc1cc(OCC2CN(Cc3cnc(NC(C)=O)s3)C2)ccn1` [Example 2-23, N-(5-((3-(((2-methoxypyridin-4-yl)oxy)methyl)azetidin-1-yl)methyl)thiazol-2-yl)acetamide]: 670 nM; `CC(=O)Nc1ncc(CN2CC(CNc3cc(C)nc(C)c3)C2)s1` [Example 2-24, N-(5-((3-(((2,6-dimethylpyridin-4-yl)amino)methyl)azetidin-1-yl)methyl)thiazol-2-yl)acetamide]: 1400 nM; `COc1cc(NCC2CN(Cc3cnc(NC(C)=O)s3)C2)ccn1` [Example 2-25, N-(5-((3-(((2-methoxypyridin-4-yl)amino)methyl)azetidin-1-yl)methyl)thiazol-2-yl)acetamide]: 610 nM.
Next, `CC(=O)Nc1ncc(CN2CC(CNc3cc(C)nc(C)n3)C2)s1` [Example 2-26, N-(5-((3-(((2,6-dimethylpyrimidin-4-yl)amino)methyl)azetidin-1-yl)methyl)thiazol-2-yl)acetamide]: 1300 nM; `COc1cc(O[C@H]2CN(Cc3cnc(NC(C)=O)s3)[C@@H]2C)ncn1` [Example 2-27, N-(5-(((2R,3S)-3-((6-methoxypyrimidin-4-yl)oxy)-2-methylazetidin-1-yl)methyl)thiazol-2-yl)acetamide]: 600 nM; `COc1cc(O[C@@H]2CN(Cc3cnc(NC(C)=O)s3)[C@@H]2C)ncn1` [Example 2-28, N-(5-(((2R,3R)-3-((6-methoxypyrimidin-4-yl)oxy)-2-methylazetidin-1-yl)methyl)thiazol-2-yl)acetamide]: 110 nM.
For `CC(=O)Nc1ncc(CN2C[C@@H](Oc3ncc(F)cn3)[C@H]2C)s1` [Example 2-29, N-(5-(((2R,3R)-3-((5-fluoropyrimidin-2-yl)oxy)-2-methylazetidin-1-yl)methyl)thiazol-2-yl)acetamide] the value was 570 nM.
